Laboratory results: US20220227765A1, “PYRIDO-INDOLE ANALOGUES AS GPX4 INHIBITORS” (Ferro Therapeutics, Inc., priority 2019, published 2022)
Where two headings read alike, the source gives them in different places.

How the values were obtained:
Type in all cases: cell-based, human
[1] = test system: 786-O; experiment: Cell proliferation (Alamar Blue) assay, 786-O; details: Homo sapiens, 786-0, 24 h
Description: (§1) Cell viability assay was performed to assess the potency of the compounds in human cancer cell lines 786-0 (renal cell carcinoma) and SJSA-1 (osteosarcoma). Additional cell lines, such as pancreatic cancer cell lines (Panc 02.13, BxPC-3, Panc 12, Panc 02.03, Panc 6.03, PSN-1, HPAC, and Capan-1), prostate cancer cell lines (PC-3, DU145, 22Rv1, NCI-H660, BPH1, LNCaP, BM-1604, and MDA PCa 2b), etc., can be tested in a similar method.
(§2) Cells (SJSA-1, 786-0 and A431) were seeded (5000 cells/100 μL/well) in 96-well tissue culture plate and incubated at 37° C./5% CO2 for 16-24 hours. The cells were then treated with compounds (25 μL of 5×). The compound concentrations were 10-0.0005 μM prepared in 3-fold serial dilutions with final DMSO concentration of 1%. The plates were then incubated for 24 h at 37° C./5% CO2 in a moist environment. Then Alamar Blue™ reagent (final concentration 1×-12.5 μL) was added to each well and incubated for 1.5 hours at 37° C./5% CO2. The plates were read on fluorescence reader at 540 nm excitation and 590 nm emission wavelengths. The IC50 values were subsequently determined using a sigmoidal dose-response curve (variable slope) in GraphPad Prism® 5 software. Table A-3, Table B-3 and Table C-3 show cell proliferation data for certain compounds as described herein.

[2] = test system: SJSA-1; experiment: Cell proliferation (Alamar Blue) assay, SJSA-1; details: Homo sapiens, SJSA-1, 24 h
Description: as §1, §2

[3] = test system: A431; experiment: Cell proliferation (Alamar Blue) assay, A431
Description: as §1, §2

[4] = Table C-3, SJSA-1 cells, 24 h, read-out: IC50 (μM) SJSA-1
[5] = Homo sapiens, A-431, 24 h, Table C-3, A431 cells
[6] = Table A-3, SJSA-1 cells, 24 h, read-out: IC50 (μM) SJSA-1
[7] = Homo sapiens, A-431, 24 h, Table A-3, A431 cells
[8] = Table B-3, head prints SJSB-1, 24 h, read-out: IC50 (μM) SJSB-1
[9] = Homo sapiens, A-431, 24 h, Table B-3, A431 cells

SMILES	IC50 ([1]; Table B-3, 786-O cells)	IC50 [2, 8]	IC50 [3, 9]	further results
CCCC[C@H]1Cc2c([nH]c3ccccc23)[C@](C)(c2ccc(F)cc2)N1C(=O)CCl [Compound C-14]	–	–	–	IC50 ([1]; Table C-3, 786-O cells): 0.017 µM; IC50 [2, 4]: 0.017 µM; IC50 [3, 5]: > 10 µM
C#CC(=O)N1[C@@H](CCCC)Cc2c([nH]c3ncccc23)[C@@H]1c1ccc(NC23CC4CC(CC(C4)C2)C3)cc1 [Compound A-7]	–	–	–	IC50 ([1]; Table A-3, 786-O cells): 0.034 µM; IC50 [2, 6]: 0.058 µM; IC50 [3, 7]: 4.88 µM
C#CC(=O)N1C(CCCC)Cc2c([nH]c3ccccc23)[C@@H]1c1ccc(CNCC23CC4CC(CC(C4)C2)C3)cc1 (stereo partly drawn) [Compound B-45A]	0.0002 µM	0.001 µM	3.8 µM	–
C#CC(=O)N1[C@@H](CCCC)Cc2c([nH]c3ncccc23)[C@@H]1c1ccc(F)cc1 [Compound A-3]	–	–	–	IC50 ([1]; Table A-3, 786-O cells): 0.017 µM; IC50 [2, 6]: 0.017 µM; IC50 [3, 7]: 8.36 µM
C#CC(=O)N1[C@@H](CCCC)Cc2c([nH]c3ccccc23)[C@@H]1c1ccc(NC2CCCCC2)cc1 [Compound B-71]	0.042 µM	0.056 µM	> 10 µM	–
C#CC(=O)N1C(CCCC)Cc2c([nH]c3ccccc23)[C@@H]1c1ccc(C(O)CO)cc1 (stereo partly drawn) [Compound B-95]	0.32 µM	0.74 µM	> 10 µM	–
C#CC(=O)N1[C@@H](CCCC)Cc2c([nH]c3c(F)cc(F)cc23)[C@@H]1CC(C)C [Compound C-5]	–	–	–	IC50 ([1]; Table C-3, 786-O cells): 0.22 µM; IC50 [2, 4]: 0.22 µM; IC50 [3, 5]: > 10 µM
C#CC(=O)N1[C@@H](CCCC)Cc2c([nH]c3ccccc23)[C@@H]1C12CC3CC(CC(C3)C1)C2 [Compound B-94]	1.06 µM	1.37 µM	> 10 µM	–
C#CC(=O)N1[C@@H](CCCC)Cc2c([nH]c3c(F)cc(F)cc23)[C@@H]1C1CCC(=O)CC1 [Compound B-76]	0.168 µM	0.247 µM	> 10 µM	–
C#CC(=O)N1[C@@H](CCCC)Cc2c([nH]c3ccccc23)[C@@H]1c1ccc(C(=O)NCC2(O)CCC2)cc1 [Compound B-16]	0.007 µM	0.029 µM	6.4 µM	–
C#CC(=O)N1[C@@H](CCCC)Cc2c([nH]c3c(F)cc(F)cc23)[C@@H]1c1ccc(NC(=O)OCCCC(=O)O)cc1 [Compound B-86]	0.227 µM	0.239 µM	> 10 µM	–
C#CC(=O)N1[C@@H](CCCC)Cc2c([nH]c3ccccc23)[C@@H]1c1ccc(NC23CC4CC(CC(C4)C2)C3)cc1 [Compound B-18]	0.005 µM	0.006 µM	–	IC50 ([3]; Table B-3, A431 cells, 24 h): 7.8 µM
C[C@H]1Cc2c([nH]c3ncccc23)[C@H](c2ccc(F)cc2)N1C(=O)CCl [Compound A-1]	–	–	–	IC50 ([1]; Table A-3, 786-O cells): 0.03 µM; IC50 [2, 6]: 0.145 µM; IC50 [3, 7]: > 10 µM
C#CC(=O)N1[C@@H](CCCC)Cc2c([nH]c3ccccc23)[C@@H]1CCCCC [Compound B-92]	0.137 µM	0.17 µM	> 10 µM	–
C#CC(=O)N1[C@@H](CCCC)Cc2c([nH]c3ccccc23)[C@@H]1c1ccc(C(=O)NC23CC4CC(CC(C4)C2)C3)cc1 [Compound B-7, N-((3R,5R,7R)-adamantan-1-yl)-4-((1S,3S)-3-butyl-2-propioloyl-2,3,4,9-tetrahydro-1H-pyrido[3,4-b]indol-1-yl)benzamide]	0.002 µM	0.002 µM	5.5 µM	–
C#CC(=O)N1[C@@H](c2ccc(NC34CC5CC(CC(C5)C3)C4)cc2)c2[nH]c3ccccc3c2C[C@@H]1C(=O)OC [Compound B-6, methyl (1S,3R)-1-(4-(((3R,5R,7R)-adamantan-1-yl)amino)phenyl)-2-propioloyl-2,3,4,9-tetrahydro-1H-pyrido[3,4-b]indole-3-carboxylate]	0.024 µM	0.024 µM	6.1 µM	–

SMILES	IC50 ([1]; Table B-3, 786-O cells)	IC50 [2, 8]	IC50 [3, 9]	further results
C#CC(=O)N1[C@@H](C)Cc2c([nH]c3ccccc23)[C@]1(C)c1ccc(F)cc1 [Compound C-37]	–	–	–	IC50 ([1]; Table C-3, 786-O cells): 0.017 µM; IC50 [2, 4]: 0.054 µM; IC50 [3, 5]: > 10 µM
C#CC(=O)N1[C@@H](CCCC)Cc2c([nH]c3c(F)cc(F)cc23)[C@@H]1COCCOC [Compound C-7]	–	–	–	IC50 ([1]; Table C-3, 786-O cells): 0.043 µM; IC50 [2, 4]: 0.093 µM; IC50 [3, 5]: 6.8 µM
C#CC(=O)N1C(c2ccn(C34CC5CC(CC(C5)C3)C4)n2)c2[nH]c3ccccc3c2C[C@@H]1CCCC (stereo partly drawn) [Compound B-63]	0.061 µM	0.059 µM	5.8 µM	–
C#CC(=O)N1[C@@H](CCCC)Cc2c([nH]c3c(F)cc(F)cc23)[C@@H]1CCC [Compound B-73]	0.14 µM	0.22 µM	> 10 µM	–
C#CC(=O)N1[C@@H](CCCC)Cc2c([nH]c3c(F)cc(F)cc23)[C@@H]1c1ccc(NC23CC4CC(CC(C4)C2)C3)cc1 [Compound B-65]	0.015 µM	0.016 µM	3.53 µM	–
C#CC(=O)N1[C@@H](CCCC)Cc2c([nH]c3c(F)cc(F)cc23)[C@@H]1c1ccc(N2CCC2)c(C#N)c1 [Compound B-60]	0.31 µM	0.706 µM	> 10 µM	–
C#CC(=O)N1[C@@H](CCCC)Cc2c([nH]c3c(F)cc(F)cc23)[C@@H]1COCCOC [Compound B-80]	0.043 µM	0.093 µM	6.8 µM	–
CCCCCOC(=O)NC12CC([C@H]3c4[nH]c5c(F)cc(F)cc5c4C[C@H](CCCC)N3C(=O)CCl)(C1)C2 [Compound B-90]	0.013 µM	0.03 µM	> 10 µM	–
C#CC(=O)N1[C@@H](CCCC)Cc2c([nH]c3c(F)cc(F)cc23)[C@@H]1CCCCCCCCCCCCCCC [Compound C-6]	–	–	–	IC50 ([1]; Table C-3, 786-O cells): > 10 µM; IC50 [2, 4]: > 10 µM; IC50 [3, 5]: > 10 µM
C#CC(=O)N1[C@@H](CCCC)Cc2c([nH]c3ccccc23)[C@@H]1c1ccc(NC2CCCC2)cc1 [Compound B-68]	0.045 µM	0.0715 µM	> 10 µM	–
C#CC(=O)N1[C@@H](CCCC)Cc2c([nH]c3ccccc23)[C@@H]1c1ccc(NC2CCC2)cc1 [Compound B-4, 1-((1S,3S)-3-butyl-1-(4-(cyclobutylamino)phenyl)-1,3,4,9-tetrahydro-2H-pyrido[3,4-b]indol-2-yl)prop-2-yn-1-one]	0.008 µM	0.015 µM	5.9 µM	–
C#CC(=O)N1[C@@H](CCCC)Cc2c([nH]c3ccc(F)cc23)[C@@H]1c1ccc(NC23CC4CC(CC(C4)C2)C3)cc1 [Compound B-64]	0.008 µM	0.012 µM	4.45 µM	–
C#CC(=O)N1[C@@H](CCCC)Cc2c([nH]c3c(F)cc(F)cc23)[C@@H]1C1CCC(O)CC1 (stereo partly drawn) [Compound B-77]	0.166 µM	0.16 µM	6.57 µM	–
C#CC(=O)N1[C@@H](CCCC)Cc2c(n(C)c3ccccc23)[C@@H]1c1ccc(NC23CC4CC(CC(C4)C2)C3)cc1 [Compound B-70, 1-((1S,3S)-1-(4-(((1R,3R,5S)-adamantan-1-yl)amino)phenyl)-3-butyl-9-methyl-1,3,4,9-tetrahydro-2H-pyrido[3,4-b]indol-2-yl)prop-2-yn-1-one]	0.0165 µM	0.066 µM	4.76 µM	–
CCCC[C@H]1Cc2c([nH]c3c(F)cc(F)cc23)[C@H](C23CC(N)(C2)C3)N1C(=O)CCl [Compound B-83]	0.12 µM	0.12 µM	> 10 µM	–
C#CC(=O)N1[C@@H](CCCC)Cc2c([nH]c3ccccc23)[C@@H]1c1ccc(N2CCC3(COC3)C2)cc1 [Compound B-69, 1-((1S,3S)-1-(4-(2-oxa-6-azaspiro[3.4]octan-6-yl)phenyl)-3-butyl-1,3,4,9-tetrahydro-2H-pyrido[3,4-b]indol-2-yl)prop-2-yn-1-one]	0.047 µM	0.036 µM	> 1 µM	–
